# Experimental data reported in patent publication US9833497B2, “Human originated EGF domain proteins and use of the same” (CHENGDU SOURCEBIO LIMITED-LIABILITY COMPANY, priority 2013, dated 2017).
# Legend:
# Type in all cases: cell-based
# E. coli DH5α = test: Antibacterial activity: MIC and growth curve against E. coli DH5α in 96-well plate; conditions: minimal inhibitory concentration against E. coli DH5α; 96-well plate, 5×10^5 CFU/mL, 37° C., judged after 8 h
# How it was run: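 Log-phase bacteria (OD600 ~0.5) resuspended in LB at 5×10^5 CFU/mL, exposed to recombinant protein at 50, 25, 12.5 μg/mL final in triplicate, 37 °C shaking at 175 rpm. OD600 read every 30 min; MIC is lowest concentration showing no growth.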
# E. coli BL21 = test: MIC against Gram-negative bacteria: E. coli BL21; conditions: for MIC: E. coli BL21
# How it was run: (§1)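 Bacteria grown in LB at 37° C with shaking to McFarland 0.5, pelleted and resuspended in fresh LB, then seeded at 5×10^5 CFU/mL per well. Purified recombinant human EGF domain proteins were two-fold serially diluted in triplicate and plates shaken at 37° C, 175 rpm. MIC is the lowest protein concentration with no bacterial growth.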
# Pseudomonas aeruginosa = test: MIC against Gram-negative bacteria: Pseudomonas aeruginosa; conditions: for MIC: P. aeruginosa
# How it was run: as §1
# Klebsiella pneumonia = test: MIC against Gram-negative bacteria: Klebsiella pneumonia; conditions: for MIC: K. pneumonia
# How it was run: as §1
# Enterobacter cloacae = test: MIC against Gram-negative bacteria: Enterobacter cloacae; conditions: for MIC: E. cloacae
# How it was run: as §1
# Aeromonas hydrophila = test: MIC against Gram-negative bacteria: Aeromonas hydrophila; conditions: for MIC: A. hydrophila
# How it was run: as §1
# Citrobacter diversus = test: MIC against Gram-negative bacteria: Citrobacter diversus; conditions: for MIC: C. diversus
# How it was run: as §1
# Moraxella catarrhalis = test: MIC against Gram-negative bacteria: Moraxella catarrhalis; conditions: for MIC: M. catarrhalis
# How it was run: as §1
# Proteus mirabilis = test: MIC against Gram-negative bacteria: Proteus mirabilis; conditions: for MIC: P. mirabilis
# How it was run: as §1
# Proteus vulgaris = test: MIC against Gram-negative bacteria: Proteus vulgaris; conditions: for MIC: P. vulgaris
# How it was run: as §1
# Serratia marcescens = test: MIC against Gram-negative bacteria: Serratia marcescens; conditions: for MIC: S. marcescens
# How it was run: as §1
# [1] = 10 h cultivation at 37° C., 5×10^5 CFU/mL
# [2] = 10 h cultivation at 37° C., 5×10^5 CFU/mL, two-fold serial dilution
# [3] = 96-well plate, 5×10^5 CFU/mL, 37° C., 10 h
substance,measurement,setting,value
PRT436 (DINECEHRNHTCNLQQTCYNLQGGFKCIDPIRCEEPYLRISDNRCM; listed as Homo sapiens),MIC,E. coli DH5α,12.5 µg/mL
same,MIC,E. coli BL21; [1],25 µg/mL
same,MIC,Pseudomonas aeruginosa; [1],50 µg/mL
same,MIC,Klebsiella pneumonia; [1],25 µg/mL
same,MIC,Enterobacter cloacae; [1],12.5 µg/mL
same,MIC,Aeromonas hydrophila; [1],50 µg/mL
same,MIC,Citrobacter diversus; [1],12.5 µg/mL
same,MIC,Moraxella catarrhalis; [1],50 µg/mL
same,MIC,Proteus mirabilis; [1],12.5 µg/mL
same,MIC,Proteus vulgaris; [1],50 µg/mL
same,MIC,Serratia marcescens; [1],100 µg/mL
PRT1126 (DVRACSSAPCANNRTCVSLDDGLYECSCAPGYSGKDCQ; listed as Homo sapiens),MIC,E. coli DH5α,25 µg/mL
same,MIC E. coli BL21,E. coli BL21; [2],50 µg/mL
same,MIC P. aeruginosa,Pseudomonas aeruginosa; [2],25 µg/mL
same,MIC K. pneumonia,Klebsiella pneumonia; [2],12.5 µg/mL
same,MIC E. cloacae,Enterobacter cloacae; [2],25 µg/mL
same,MIC A. hydrophila,Aeromonas hydrophila; [2],25 µg/mL
same,MIC C. diversus,Citrobacter diversus; [2],50 µg/mL
same,MIC M. catarrhalis,Moraxella catarrhalis; [2],12.5 µg/mL
same,MIC P. mirabilis,Proteus mirabilis; [2],50 µg/mL
same,MIC P. vulgaris,Proteus vulgaris; [2],12.5 µg/mL
same,MIC S. marcescens,Serratia marcescens; [2],50 µg/mL
PRT628 (CTCNQHGTCDPNTGICVCSHHTEGPSCERCLPGFYGNPFAGQADDCQP; listed as Homo sapiens),MIC,E. coli DH5α,12.5 µg/mL
same,MIC E. coli BL21,E. coli BL21; [3],12.5 µg/mL
same,MIC P. aeruginosa,Pseudomonas aeruginosa; [3],25 µg/mL
same,MIC K. pneumonia,Klebsiella pneumonia; [3],12.5 µg/mL
same,MIC E. cloacae,Enterobacter cloacae; [3],25 µg/mL
same,MIC A. hydrophila,Aeromonas hydrophila; [3],12.5 µg/mL
same,MIC C. diversus,Citrobacter diversus; [3],25 µg/mL
same,MIC M. catarrhalis,Moraxella catarrhalis; [3],12.5 µg/mL
same,MIC P. mirabilis,Proteus mirabilis; [3],25 µg/mL
same,MIC P. vulgaris,Proteus vulgaris; [3],12.5 µg/mL
same,MIC S. marcescens,Serratia marcescens; [3],25 µg/mL
PRT1135 (NLDDCASRPCQRGARCRDRVHDFDCLCPSGYGGKTCE; listed as Homo sapiens),MIC,E. coli DH5α,25 µg/mL
same,MIC E. coli BL21,E. coli BL21; [2],50 µg/mL
same,MIC P. aeruginosa,Pseudomonas aeruginosa; [2],100 µg/mL
same,MIC K. pneumonia,Klebsiella pneumonia; [2],50 µg/mL
same,MIC E. cloacae,Enterobacter cloacae; [2],25 µg/mL
same,MIC A. hydrophila,Aeromonas hydrophila; [2],25 µg/mL
same,MIC C. diversus,Citrobacter diversus; [2],12.5 µg/mL
same,MIC M. catarrhalis,Moraxella catarrhalis; [2],25 µg/mL
same,MIC P. mirabilis,Proteus mirabilis; [2],50 µg/mL
same,MIC P. vulgaris,Proteus vulgaris; [2],25 µg/mL
same,MIC S. marcescens,Serratia marcescens; [2],12.5 µg/mL
PRT906 (LVHWCDSSPCKNGGKCWQTHTQYRCECPSGWTGLYCD; listed as Homo sapiens),MIC,E. coli DH5α,50 µg/mL
same,MIC,E. coli BL21; 10 h cultivation at 37° C.,25 µg/mL
same,MIC,Pseudomonas aeruginosa; 10 h cultivation at 37° C.,12.5 µg/mL
same,MIC,Klebsiella pneumonia; 10 h cultivation at 37° C.,25 µg/mL
same,MIC,Enterobacter cloacae; 10 h cultivation at 37° C.,50 µg/mL
same,MIC,Aeromonas hydrophila; 10 h cultivation at 37° C.,12.5 µg/mL
same,MIC,Citrobacter diversus; 10 h cultivation at 37° C.,25 µg/mL
same,MIC,Moraxella catarrhalis; 10 h cultivation at 37° C.,50 µg/mL
same,MIC,Proteus mirabilis; 10 h cultivation at 37° C.,25 µg/mL
same,MIC,Proteus vulgaris; 10 h cultivation at 37° C.,12.5 µg/mL
same,MIC,Serratia marcescens; 10 h cultivation at 37° C.,25 µg/mL
PRT613 (CQCSDNIDPNAVGNCNRLTGECLKCIYNTAGFYCDRCKDGFFGNPLAPNPADKCKA; listed as Homo sapiens),MIC,E. coli DH5α,50 µg/mL
same,MIC E. coli BL21,E. coli BL21; [3],12.5 µg/mL
same,MIC P. aeruginosa,Pseudomonas aeruginosa; [3],25 µg/mL
same,MIC K. pneumonia,Klebsiella pneumonia; [3],50 µg/mL
same,MIC E. cloacae,Enterobacter cloacae; [3],25 µg/mL
same,MIC A. hydrophila,Aeromonas hydrophila; [3],12.5 µg/mL
same,MIC C. diversus,Citrobacter diversus; [3],25 µg/mL
same,MIC M. catarrhalis,Moraxella catarrhalis; [3],50 µg/mL
same,MIC P. mirabilis,Proteus mirabilis; [3],25 µg/mL
same,MIC P. vulgaris,Proteus vulgaris; [3],12.5 µg/mL
same,MIC S. marcescens,Serratia marcescens; [3],50 µg/mL
PRT528 (CSCNSNGQLGSCHPLTGDCINQEPKDSSPAEECDD; listed as Homo sapiens),MIC,E. coli DH5α,12.5 µg/mL
same,MIC against E. coli BL21,E. coli BL21; [3],25 µg/mL
same,MIC against P. aeruginosa,Pseudomonas aeruginosa; [3],50 µg/mL
same,MIC against K. pneumonia,Klebsiella pneumonia; [3],25 µg/mL
same,MIC against E. cloacae,Enterobacter cloacae; [3],12.5 µg/mL
same,MIC against A. hydrophila,Aeromonas hydrophila; [3],25 µg/mL
same,MIC against C. diversus,Citrobacter diversus; [3],50 µg/mL
same,MIC against M. catarrhalis,Moraxella catarrhalis; [3],25 µg/mL
same,MIC against P. mirabilis,Proteus mirabilis; [3],12.5 µg/mL
same,MIC against P. vulgaris,Proteus vulgaris; [3],25 µg/mL
same,MIC against S. marcescens,Serratia marcescens; [3],50 µg/mL
